We go through 18 compounds from patent US9034857B2 (Health Research, Inc., priority 2010, dated 2015).

“Also recorded” adds a separate entry of the source. Where two headings read alike, the source gives them in different places.

Test [1] deals with O2- in stationary phase cells. Kind of test: Levels of O2- detected by DHE fluorescence in stationary phase cells. The class given is cell-based, Saccharomyces cerevisiae. The settings on record: for Superoxide anions: Table 2 summary, stationary phase. The protocol:
The following materials and methods were used to obtain the data presented in this Example. To assess CLS 50 ml cultures were inoculated with 1% (v/v) of a fresh overnight culture in either SC or YPD. SC was supplemented using known techniques. In experiments that employed media that initially contained 10% glucose, control 2% glucose cultures also contained 8% sorbitol to maintain equivalent osmolarity. Determination of chronological life span, fraction of budded cells, flow cytometry measurements of DNA content and measurements of dihydroethidium (DHE) and dihydrorhodamine 123 (DHR) were used according to standard methods. N-acetylcysteine (NAC) and glutathione (GSH) were dissolved in growth medium, filter sterilized and added to cultures from 100 mM (NAC) or 250 mM (GSH) stocks at the start of experiments. Propidium iodide (PI) was used to assess viability of cells by mixing a 2 μl of cells with an equal volume of 1 mM PI on a microscope slide and examining the slide with a fluorescence microscope equipped with a Texas Red filter. Non-fluorescent cells were scored as intact (live) and fluorescent cells were scored as dead. The total number of cells in cultures was determined by particle counts using a Petroff Hauser counting chamber. Samples for transmission electron microscopy were prepared using standard methods. Briefly, cells cultured at 30° C. in YPD medium for 3 to 5 days were harvested by gentle centrifugation, washed in phosphate buffered saline (PBS) (pH=7.2), resuspended in 2.5% (v/v) glutaraldehyde in PBS and fixed for 40 min at room temperature. Cells were further fixed by 2% freshly prepared potassium permanganate in water for 1 hour at room temperature. Fixed cells were dehydrated with 30%, 50%, 75%, 85%, 95%, and 100% ethanol. Cells were transitioned with propylene oxide, infiltrated in Spurr resin (Electron Microscopy Sciences, PA). Resin was polymerized at 65° C. overnight in the oven. 60 nm ultrathin sections were cut with a diamond knife, stained with 2% uranyl acetate and lead citrate and examined using a Hitachi H-7000 electron microscope, equipped with a 4K×4K cooled CCD digital camera (Gatan, Inc., CA). Values presented in graphs that contain error bars represent means and standard deviations from three or more independent experiments. Other results are representative of at least three independent experiments. Statistical analyses were performed using Student's t-test. P<0.05 was considered statistically significant.

The test system of the next test is mammalian cells. The conditions noted are these: cited from earlier work.
A further test concerns Saccharomyces cerevisiae. Kind of test: Chronological lifespan (CLS) of budding yeast. The class given is cell-based.
The next test has as its system ribonucleotide reductase. The conditions noted are these: low levels of hydroxyurea; cited from earlier work.
A further test has as its system budding yeast. The conditions noted are these: cited from earlier work.
The subject of test [2] is intracellular O2- in stationary phase budding yeast cells. Briefly: High throughput flow cytometry DHE screen for reduction of superoxide in stationary phase budding yeast. It is filed as cell-based, S. cerevisiae.
The subject of test [3] is interleukin-6 release from human macrophages. Kind of test: Interleukin-6 release from human macrophages. The class given is cell-based.
[4] abbreviates: dose response assays from 0.004 uM to 30 uM, 7 day incubation, 7% glucose.

Regarding `CC(=O)N[C@@H](CS)C(=O)O` [N-acetylcysteine], the “levels of O2- (DHE fluorescence)” value in test [1] is recorded as “absent”; in test [1] (wild type cells, day 3 of medium depletion, listed as NAC), “dose-dependent increases; also recorded: elevate O2- levels”. For the same compound, the Superoxide anions entry in test [1] is “↑”. Moreover, the “induction of O2-” value in the test on mammalian cells is on record as “induction of O2-”. Further, the “chronological lifespan (CLS)” value with Saccharomyces cerevisiae (sch9Δ cells) is “not sch9Δ cells”; in the test with Saccharomyces cerevisiae (wild type cells, listed as NAC), “shortened CLS in a dose-dependent fashion; also recorded: shorten CLS”.

`N[C@@H](CCC(=O)N[C@@H](CS)C(=O)NCC(=O)O)C(=O)O` [GSH, glutathione]: the Superoxide anions result in test [1] is “↓”. The “levels of O2- (DHE fluorescence)” value in test [1] (wild type cells, day 3 of medium depletion) is recorded as “reduced levels of O2-”.

As to `NC(=O)NO` [hydroxyurea], the “shortening of CLS” value with ribonucleotide reductase is reported as 20-27%.

On to `Cc1c(C)c2c(c(C)c1O)CC[C@@](C)(CCC[C@H](C)CCC[C@H](C)CCCC(C)C)O2` [α-tocopherol], for which, in the test with budding yeast, the pro-oxidant effects entry is listed as “pro-oxidant effects”.

In the case of `c1ccc2nc3cc4[nH]cnc4cc3nc2c1` [MLS000700045, 1H-imidazo[4,5-b]phenazine], the “reducing superoxide anions in S. cerevisiae” value in test [2] is recorded as “reducing superoxide anions”. Also, the “dose dependency in re-screening (reduction of superoxide, DHE)” value in test [2] (setting [4]) is “identified by dose dependency; also recorded: exhibited dose dependency”. Also, the “inhibition of interleukin-6 release” value in test [3] is on record as “inhibit interleukin-6 release”.

For the compound `COc1ccc2c3c(cccc13)N(C)N=C2C` [MLS000554700, 6-Methoxy-1,3-dimethyl-1H-benzo[de]cinnoline], the “dose dependency in re-screening (reduction of superoxide, DHE)” value in test [2] (setting [4]) is given as “identified by dose dependency; also recorded: exhibited dose dependency”.

For `COC1=C(OC)C(=O)C(C/C=C(\C)CC/C=C(\C)CC/C=C(\C)CC/C=C(\C)CC/C=C(\C)CC/C=C(\C)CC/C=C(\C)CC/C=C(\C)CC/C=C(\C)CCC=C(C)C)=C(C)C1=O` [coenzyme Q10], in the test on budding yeast, the pro-oxidant effects result is reported as “pro-oxidant effects”.

On to `COc1ccc2nc3ccccc3nc2c1` [MLS001048992, 2-methoxyphenazine], for which, in test [2] (setting [4]), the “dose dependency in re-screening (reduction of superoxide, DHE)” value was “identified by dose dependency; also recorded: exhibited dose dependency”.

As for `C=CCSc1nnc(-c2ccc([N+](=O)[O-])cc2)o1` [MLS000662516, 2-(4-nitrophenyl)-5-prop-2-enylsulfanyl-1,3,4-oxadiazole], in test [2] (setting [4]), the “dose dependency in re-screening (reduction of superoxide, DHE)” value is on record as “identified by dose dependency; also recorded: exhibited dose dependency”.

Turning to `CC(C)OC(=O)c1ccc2nc3ccccc3nc2c1` [MLS001173415, propan-2-yl phenazine-2-carboxylate], the “dose dependency in re-screening (reduction of superoxide, DHE)” value in test [2] (setting [4]) is listed as “identified by dose dependency; also recorded: exhibited dose dependency”.

As to `CC(=O)Nc1ccc2nc3ccccc3nc2c1` [MLS001044354, N-phenazin-2-ylacetamide], the “dose dependency in re-screening (reduction of superoxide, DHE)” value in test [2] (setting [4]) is recorded as “identified by dose dependency; also recorded: exhibited dose dependency”.

With `O=C(Nc1ccccc1-c1cn2c(CN3CCNCC3)csc2n1)c1cnc2ccccc2n1` [SRT1720, reference compound], the “reducing superoxide anions in S. cerevisiae” value in test [2] is listed as “reducing superoxide anions”. Also, the “inhibition of interleukin-6 release” value in test [3] was “inhibit interleukin-6 release”.

`C[C@]12CCC3C(CC[C@H]4C[C@@H](O)CC[C@]34C)[C@H]1CC[C@H]2O` (stereo partly drawn) [MLS002554375, (3S,5S,10S,13S,14R,17R)-10,13-dimethyl-2,3,4,5,6,7,8,9,11,12,14,15,16,17-tetradecahydro-1H-cyclopenta[a]phenanthrene-3,17-diol]: the “dose dependency in re-screening (reduction of superoxide, DHE)” value in test [2] is on record as “identified by dose dependency; also recorded: exhibited dose dependency”.

For the compound `C#CCSc1nnc(-c2ccc([N+](=O)[O-])cc2)o1` [MLS000663774, 2-(4-nitrophenyl)-5-prop-2-ynylsulfanyl-1,3,4-oxadiazole], in test [2] (setting [4]), the “dose dependency in re-screening (reduction of superoxide, DHE)” value is reported as “identified by dose dependency; also recorded: exhibited dose dependency”.

As to `Cc1ccc(-c2nn(C(C)(C)C)c3ncnc(N)c23)cc1` [MLS000326642, 1-tert-butyl-3-(4-methylphenyl)pyrazolo[3,4-d]pyrimidin-4-amine], in test [2], the “dose dependency in re-screening (reduction of superoxide, DHE)” value is listed as “identified by dose dependency; also recorded: exhibited dose dependency” and the “reducing superoxide anions in S. cerevisiae” value is recorded as “reducing superoxide anions”. Further, the “inhibition of interleukin-6 release” value in test [3] was “inhibit interleukin-6 release”.

As to `CC(=NNc1ncnc2sc(C)c(C)c12)c1ccccn1` [MLS001176565, 5,6-dimethyl-N-(1-pyridin-2-ylethylideneamino)thieno[2,3-d]pyrimidin-4-amine], the “dose dependency in re-screening (reduction of superoxide, DHE)” value in test [2] (setting [4]) is on record as “identified by dose dependency; also recorded: exhibited dose dependency”.

As for `CC(C)(C)n1nc(-c2ccc(F)cc2)c2c(N)ncnc21` [MLS000326584, 1-tert-butyl-3-(4-fluorophenyl)pyrazolo[3,4-d]pyrimidin-4-amine], the “dose dependency in re-screening (reduction of superoxide, DHE)” value in test [2] (setting [4]) is on record as “identified by dose dependency; also recorded: exhibited dose dependency”.

With `FC(F)(F)c1nc2cc3nc4ccccc4nc3cc2[nH]1` [MLS001049309, 2-(trifluoromethyl)-1H-imidazo[4,5-b]phenazine], the “dose dependency in re-screening (reduction of superoxide, DHE)” value in test [2] (setting [4]) is “identified by dose dependency; also recorded: exhibited dose dependency”.
